We go through four molecules from US11766434B2, “Pyrimidinone derivatives as CDC7 inhibitors” (Cancer Research Technology Limited, priority 2016, dated 2023).

Structures are written as SMILES.

For one assay, the target named is Cdc7 (Homo sapiens, UniProt O00311). The experiment in a line: Cdc7 cell pharmacodynamics assay Method 2: pS40MCM2 levels in HCT116 cells. Set-up: endogenous in cells. In kind it is cell-based. The conditions noted are these: 18 hours treatment, read-out: Biomarker Method 2 (pEC50) (converted). An excerpt:
This protocol describes a method to investigate the inhibition of Cdc7 activity by measuring pS40MCM2 levels in cells, after treatment with compounds.
• HCT116 cells (ATCC, #CCL-247) • McCoys 5A with L-glutamine (Cellgro, #10-050-CV) • 10% FCS (Cellgro, #35-010-CV) • D-PBS without CaCl2 and MgCl2 (Cellgro, #21-031-CV) • Trypsin/EDTA (Cellgro, #25-052-CL) • BSA (Calbiochem, 126593) • Cell Extraction Buffer (Invitrogen FNN0011) • Protease inhibitor cocktail (Sigma P-2714) • PMSF 0.3M stock in DMSO (Sigma P7626) • Antibody—rabbit pMCM2 Ser40 (Abeam, AB133243) • Antibody—goat MCM2 (Bethyl #A300-122A) • Antibody—goat Anti Rabbit IgG HRP (Thermo, 31462) • SuperSignal ELISA Pico Chemiluminescent Substrate (Perbio Science UK Ltd 37069) • 10×PBS (Growcells, MRGF-6236) • Triton X100 (Sigma, P-T8787) • DMSO (Fisher, D128-1) • 2-Propanol (J. T. Baker, 9095-03) Method • Seed 1×10^6 HCT116 cells into each of two 175 cm^2 flask containing 30 mL Cell Growth Media and incubate at 37° C., 5% CO2 for 3 days. • Harvest the cells from one T175 cm^2 flask and count. • Dilute with Cell Growth Media to a cell density of 2×10^5. Dispense 100 μL to each well (20,000 HCT116 cells/well) of TC treated 96-well plate(s). • Allow cells to settle overnight in incubator set at 37° C. and 5% CO2. • Cell treatment: Transfer 0.25 μL/well from the compound plate to the wells of the cell plate(s). This is a 1:400 dilution of compound in the assay. • Once all cells are treated place the cells back to the incubator and incubate for 18 hours. • Dilute the capture antibody (total MCM2 #A300-122A) 1 in 250 in the required volume of PBS (5 mL per assay plate, plus 5 mL for dead volume) and add 50 μL to each well of a Hybond plate except wells A12 & B12. Seal the plate and incubate at room temperature fora minimum of 2 hours. • Defrost aliquot of Invitrogen Cell Extraction Buffer (FNN0011) on ice and supplement with appropriate volume of both Sigma protease inhibitor cocktail (P-2714) and PMSF (final cone 1 mM from a 1 M stock in DMSO). • After the 6 hour or 18 hour cell treatment time, tap out the media from the assay plates and place them in the −70° C. freezer for at least 5 minutes. • Flick out the remaining liquid in the previously prepared capture Ab plate(s) and add 200 μL 2% BSA per well. Incubate for 1 hour at room temperature. • Remove plates from freezer and add 20 μL of ice cold complete lysis buffer. Incubate cells for 30 minutes at 4° C. • Add 30 μL per well 2% BSA • At the end of the 1 hour incubation, wash the Capture/ELISA plate(s) with Wash Buffer on the BioTek plate washer. • Transfer 40 μL per well of the lysis plate(s) to the same wells in the Capture/ELISA plate. Incubate cells overnight at 4° C. • At the end of the overnight incubation, wash the ELISA plate(s) with Wash Buffer on BioTek plate washer. • Prepare Detection Antibody Buffer and dispense 50 μL to all wells of ELISA plate(s) except wells G1 & H1. Cover plate and incubate at room temperature for 2 hours with gentle shaking. • At the end of the 2 hour incubation, wash the ELISA plate(s) with Wash Buffer on the BioTek plate washer. • Prepare the Conjugated Antibody Buffer and dispense 50 μL to all wells of ELISA plate(s). • Cover the plate and incubate at room temperature for 1 hour with gentle shaking. • At the end of the 1 hour incubation, wash the ELISA plate(s) with Wash Buffer on the BioTek plate washer. • Prepare Substrate Buffer and dispense 50 μL to all wells of ELISA plate(s). • Incubate for a minimum of 10 minutes and read plates on the EnVision 2100 Multilabel Reader (Mirror: Luminescence (404) & Luminescence 700 (212); Measurement Height: 6.5 mm; Measurement Time: 0.2 s). Method 3

The next assay has as its target Cdc7/ASK (Homo sapiens, UniProt O00311). Kind of assay: Cdc7 biochemical assay Method 3: off-chip mobility shift assay (MSA) run at Carna Biosciences. Set-up: purchased Carna Biosciences; host or cells: baculovirus expression system. The conditions noted are these: MCM2 peptide 1000 nM, ATP 5 μM, 5 hours, read-out: Biochemical method 3 (pIC50) (converted). On the procedure:
This protocol describes a method for assaying Cdc7/ASK for activity. The assay is an off-chip mobility shift assay (MSA) run at Carna Biosciences.
The test compound was dissolved in and diluted with dimethylsulfoxide (DMSO) to achieve 100-fold higher concentration which was specified by the sponsor. Then the solution was further 25-fold diluted with assay buffer to make the final test compound solution. Reference compounds for assay control were prepared similarly. 2. Kinase Cdc7/ASK: Full-length human Cdc7 [1-574(end) amino acids of accession number NP_003494.1] was co-expressed as N-terminal GST-fusion protein (92 kDa) with Dbf4(ASK) [1-674(end) amino acids of accession number NP_006707.1] using baculovirus expression system. GST-Cdc7 was purified by using glutathione sepharose chromatography. 3. Assay Reagents and Procedures Off-Chip Mobility Shift Assay (MSA) • 1) The […] were prepared with assay buffer (20 mM HEPES, 0.01% Triton X-100, 1 mM DTT, pH 7.5) and mixed and incubated in a well of polypropylene 384 well microplate for 5 hours at room temperature. • 2) […] of Termination Buffer (QuickScout Screening Assist MSA; Carna Biosciences) was added to the well. • 3) The reaction mixture was applied to LabChip system (Perkin Elmer), and the product and substrate peptide peaks were separated and quantitated. • 4) The kinase reaction was evaluated by the product ratio calculated from peak heights of product (P) and substrate (S) peptides (P/(P+S)). 4. Reaction Conditions
5. Data Analysis The readout value of reaction control (complete reaction mixture) was set as a 0% inhibition, and the readout value of background (Enzyme(−)) was set as a 100% inhibition, then the percent inhibition of each test solution was calculated. IC50 value was calculated from concentration vs. % Inhibition curves by fitting to a four parameter logistic curve. Results

Cdc7, sequence (O00311 whole entry): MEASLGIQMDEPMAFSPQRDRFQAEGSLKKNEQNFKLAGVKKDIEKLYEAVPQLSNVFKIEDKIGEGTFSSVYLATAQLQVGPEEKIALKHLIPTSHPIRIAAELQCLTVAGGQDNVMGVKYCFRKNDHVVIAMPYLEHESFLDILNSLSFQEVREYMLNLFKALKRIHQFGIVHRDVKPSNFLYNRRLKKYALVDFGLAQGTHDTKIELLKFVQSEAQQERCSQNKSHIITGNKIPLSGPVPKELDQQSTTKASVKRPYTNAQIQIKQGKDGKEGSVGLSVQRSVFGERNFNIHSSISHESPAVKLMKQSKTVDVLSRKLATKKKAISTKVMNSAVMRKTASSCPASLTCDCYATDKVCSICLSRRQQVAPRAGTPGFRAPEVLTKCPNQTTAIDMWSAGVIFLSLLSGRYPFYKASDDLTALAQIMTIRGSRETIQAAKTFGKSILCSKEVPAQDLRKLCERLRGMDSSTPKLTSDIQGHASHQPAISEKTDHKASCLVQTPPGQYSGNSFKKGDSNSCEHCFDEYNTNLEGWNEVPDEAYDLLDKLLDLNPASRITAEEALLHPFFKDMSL
Cdc7, sequence (Q9UBU7 whole entry partner): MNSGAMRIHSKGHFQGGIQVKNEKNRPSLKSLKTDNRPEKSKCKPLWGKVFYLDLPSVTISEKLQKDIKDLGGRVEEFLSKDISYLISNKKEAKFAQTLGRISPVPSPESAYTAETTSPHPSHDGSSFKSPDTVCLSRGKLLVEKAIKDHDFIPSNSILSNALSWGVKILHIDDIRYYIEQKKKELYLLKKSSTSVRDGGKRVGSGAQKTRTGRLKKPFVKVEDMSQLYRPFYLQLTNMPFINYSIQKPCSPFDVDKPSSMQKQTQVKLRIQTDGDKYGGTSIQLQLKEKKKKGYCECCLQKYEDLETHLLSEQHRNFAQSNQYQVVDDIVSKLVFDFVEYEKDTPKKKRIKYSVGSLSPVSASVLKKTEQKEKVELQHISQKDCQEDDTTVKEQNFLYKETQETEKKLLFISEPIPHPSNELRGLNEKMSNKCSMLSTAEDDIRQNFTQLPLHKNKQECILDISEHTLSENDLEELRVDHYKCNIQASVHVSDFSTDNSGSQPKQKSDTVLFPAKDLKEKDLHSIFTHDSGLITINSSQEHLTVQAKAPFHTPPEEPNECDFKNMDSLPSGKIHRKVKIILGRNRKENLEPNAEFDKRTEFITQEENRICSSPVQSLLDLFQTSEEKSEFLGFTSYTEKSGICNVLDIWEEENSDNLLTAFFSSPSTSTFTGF
Cdc7/ASK, sequence (O00311 whole entry): as the sequence (O00311 whole entry) above
Cdc7/ASK, sequence (Q9UBU7 whole entry partner): as the sequence (Q9UBU7 whole entry partner) above

On to `O=c1[nH]c(-c2cn[nH]c2C(F)(F)F)nc(C2CCOCC2)c1Cl` [Compound 17, 5-chloro-4-tetrahydropyran-4-yl-2-[5-(trifluoromethyl)-1H-pyrazol-4-yl]-1H-pyrimidin-6-one], for which, at Cdc7, the EC50 was 372 nM.
As for `C[C@@H]1COCCN1c1nc(-c2cn[nH]c2C(F)(F)F)[nH]c(=O)c1Cl` [Compound 41, 5-chloro-4-[(3R)-3-methylmorpholin-4-yl]-2-[5-(trifluoromethyl)-1H-pyrazol-4-yl]-1H-pyrimidin-6-one], on Cdc7/ASK, the IC50 is 3.98 nM. On Cdc7, the EC50 was 7.24 nM.
For `C[C@@H]1CNCCN1c1nc(-c2cn[nH]c2Cl)[nH]c(=O)c1Cl` [Compound 43, 5-chloro-2-(5-chloro-1H-pyrazol-4-yl)-4-[(2R)-2-methylpiperazin-1-yl]-1H-pyrimidin-6-one] the same measures were 3.89 nM and 38 nM.
For `C[C@@H]1CNCCN1c1nc(-c2cn[nH]c2C(F)(F)F)[nH]c(=O)c1Cl` [Compound 44, 5-chloro-4-[(2R)-2-methylpiperazin-1-yl]-2-[5-(trifluoromethyl)-1H-pyrazol-4-yl]-1H-pyrimidin-6-one] the same measures were 6.17 nM and 25.1 nM.
